Measured values from patent US12018021B2 (UCB Biopharma SRL, priority 2018, dated 2024).
Counter-ions that a name gives are not always drawn.

Each compound was assayed against IgE-Tb / FcεRIα-Y131A-AF488 (Homo sapiens, UniProt P01854) (assay: IgE-Tb / FcεRIα-Y131A-AF488 FRET assay (protocol for examples 1 to 233)). Conditions: examples 1 to 233: 5 nM IgE-Tb, 25 nM FcεRIα-Y131A-AF488, incubated 2 hours at room temperature; read-out: Y131A FRET IC50 range.
Assay type: binding
Description: For examples 1 to 233, the assay was conducted according to the following: Each assay reaction was conducted in a volume of 25 μl in a 384-well half-volume plate. 10 point compound serial dilutions (3-fold) were generated in DMSO at a concentration of ×50 that of the final assay concentration (FAC). Compound solutions were then prepared by IgE-Tb diluting 10-fold in assay buffer. For the assay, 5 μl of diluted compound was added to 10 μl of, followed by addition of 10 μl FcεRIα-Y131A-AF488. FRET reagents FACs were 5 nM IgE-Tb, 25 nM FcεRIα-Y131A-AF488. Usually the top FAC of compound in the assay was 10 μM. The final DMSO concentration was 2%. The minimum signal (MIN) was measured by adding 5l unlabelled FcεRIα at 1 μM (FAC=200 nM) to the FRET reagents. The maximum FRET signal (MAX) was measured in wells containing FRET reagents but no compound. The assay was incubated for 2 hours at room temperature, protected from light and evaporation, and with gentle agitation.
Measurement of FRET for each well was carried out by exciting at 330 nm and measuring emission at 495/520 nm using an Envision plate reader (Perkin Elmer). FRET ratio was calculated as follows: Emission at 520/Emission at 495×1000.
The FRET ratio was used for the data analysis.
Z′ was calculated as follows (σ=standard deviation and μ=mean): 1−((3×σMAX)+(3×σMIN))/(μMAX−μMIN)
Z′ above 0.5 was considered a good assay.
Background signal (MIN) was subtracted from all wells. Using the background subtracted values, the percent inhibition by compound in each test-well was calculated as follows: 100−Test-well FRET ratio/MAX FRET ratio×100.
Percent inhibition was plotted against compound concentration. IC50 values for each compound were determined using four parameter logistic fit model using the XLFIT5 software package.

Chain of IgE-Tb / FcεRIα-Y131A-AF488 (P01854 1-427 limits assumed, stated change not applied): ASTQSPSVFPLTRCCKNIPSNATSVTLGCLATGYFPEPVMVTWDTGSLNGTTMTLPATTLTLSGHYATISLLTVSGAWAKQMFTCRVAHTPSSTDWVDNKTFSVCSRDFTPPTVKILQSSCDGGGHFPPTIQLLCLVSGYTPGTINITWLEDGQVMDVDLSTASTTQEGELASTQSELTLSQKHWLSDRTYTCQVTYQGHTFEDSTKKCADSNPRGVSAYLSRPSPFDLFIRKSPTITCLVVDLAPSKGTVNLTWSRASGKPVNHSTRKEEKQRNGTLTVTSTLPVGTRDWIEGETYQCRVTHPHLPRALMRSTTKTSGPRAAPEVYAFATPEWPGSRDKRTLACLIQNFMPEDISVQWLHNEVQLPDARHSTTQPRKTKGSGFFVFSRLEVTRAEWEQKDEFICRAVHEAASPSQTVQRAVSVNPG

Row | Compound | IC50
1 | CC1CC1C(=O)Nc1sc2c(c1C(=O)NCC1CC1)CCCC2 (single isomer, unassigned) [Example 90, N-(cyclopropylmethyl)-2-[(2-methylcyclopropanecarbonyl)amino]-4,5,6,7-tetrahydrobenzothiophene-3-carboxamide] | 1 to 10 µM
2 | O=C(Nc1sc2c(c1C(=O)N1CCC3(CC3)C1)CC(n1cnnc1Nc1cccnc1)CC2)C1CC1 (single isomer, unassigned) [Example 128] | < 1 µM
3 | O=C(Nc1sc2c(c1C(=O)N1CCC3(CC3)C1)CC(n1cnnc1Nc1cccnc1)CC2)C1CC1 (single isomer, unassigned) [Example 129] | 1 to 10 µM
4 | CCc1c(N[C@@H]2CCc3sc(NC(=O)C4CC4)c(C(=O)NCC4CC4)c3C2)c(=O)c1=O (single isomer, unassigned) [Example 189] | < 1 µM
5 | CCc1c(N[C@H]2CCc3sc(NC(=O)C4CC4)c(C(=O)NCC4CC4)c3C2)c(=O)c1=O (single isomer, unassigned) [Example 190] | < 1 µM
6 | CC(C)(C)CNc1nncn1C1CCc2sc(NC(=O)C3CC3)c(C(=O)NCC3CC3)c2C1 (stereo in doubt) [Example 105, (5S)-2-(Cyclopropanecarbonylamino)-N-(cyclopropylmethyl)-5-[3-(2,2-dimethylpropylamino)-1,2,4-triazol-4-yl]-4,5,6,7-tetrahydrobenzothiophene-3-carboxamide] | < 1 µM
7 | CC(C)CNc1nncn1C1CCc2sc(NC(=O)C3CC3)c(C(=O)NCC3CC3)c2C1 (stereo in doubt) [Example 111, (5S)-2-(Cyclopropanecarbonylamino)-N-(cyclopropylmethyl)-5-[3-(isobutylamino)-1,2,4-triazol-4-yl]-4,5,6,7-tetrahydrobenzothiophene-3-carboxamide] | < 1 µM
8 | Cc1cncc(Nc2nncn2C2CCc3sc(NC(=O)C4CC4)c(C(=O)NCC4CC4)c3C2)c1 (stereo in doubt) [Example 114, (5S)-2-(cyclopropanecarbonylamino)-N-(cyclopropylmethyl)-5-[3-[(5-methyl-3-pyridyl)amino]-1,2,4-triazol-4-yl]-4,5,6,7-tetrahydrobenzothiophene-3-carboxamide] | < 1 µM
9 | O=C(NCC1CC1)c1c(NC(=O)C2CC2)sc2c1CC(n1cnnc1NCCN1CCOCC1)CC2 (stereo in doubt) [Example 118, (5S)-2-(Cyclopropanecarbonylamino)-N-(cyclopropylmethyl)-5-[3-(2-morpholinoethylamino)-1,2,4-triazol-4-yl]-4,5,6,7-tetrahydrobenzothiophene-3-carboxamide] | < 1 µM
10 | CC(C)(C)OC(=O)Nc1cnnn1[C@H]1CCc2sc(NC(=O)C3CC3)c(C(=O)NCC3CC3)c2C1 (stereo in doubt) [Example 140, tert-Butyl N-[3-[2-(cyclopropanecarbonylamino)-3-(cyclopropylmethylcarbamoyl)-4,5,6,7-tetrahydrobenzothiophen-5-yl]triazol-4-yl]carbamate] | < 1 µM
11 | Cc1cnc(Nc2nncn2C2CCc3sc(NC(=O)C4CC4)c(C(=O)NCC4CC4)c3C2)c(C)n1 (stereo in doubt) [Example 178, (5S)-2-(Cyclopropanecarbonylamino)-N-(cyclopropylmethyl)-5-[3-[(3,5-dimethylpyrazin-2-yl)amino]-1,2,4-triazol-4-yl]-4,5,6,7-tetrahydrobenzothiophene-3-carboxamide] | < 1 µM
12 | CNC(=O)c1c(NC(=O)C2CC2)sc2c1CCSC2 [Example 1, 2-(Cyclopropanecarbonylamino)-N-methyl-5,7-dihydro-4H-thieno[2,3-c]thiopyran-3-carboxamide] | 1 to 10 µM
13 | CNC(=O)c1c(NC(=O)C2CC2)sc2c1CCCO2 [Example 2, 6-(Cyclopropanecarbonylamino)-N-methyl-3,4-dihydro-2H-thieno[2,3-b]pyran-5-carboxamide] | 10 to 50 µM
14 | O=C(NCC1CC1)c1c(NC(=O)C2CC2)sc2c1CNCC2 [Example 3, 2-(Cyclopropanecarbonylamino)-N-(cyclopropylmethyl)-4,5,6,7-tetrahydrothieno[3,2-c]pyridine-3-carboxamide; hydrochloride] | 10 to 50 µM
15 | CS(=O)(=O)N1CCc2sc(NC(=O)C3CC3)c(C(=O)NCC3CC3)c2C1 [Example 4, 2-(Cyclopropanecarbonylamino)-N-(cyclopropylmethyl)-5-methylsulfonyl-6,7-dihydro-4H-thieno[3,2-c]pyridine-3-carboxamide] | 10 to 50 µM
16 | CC(=O)N1CCc2sc(NC(=O)C3CC3)c(C(=O)NCC3CC3)c2C1 [Example 5, 5-Acetyl-2-(cyclopropanecarbonylamino)-N-(cyclopropylmethyl)-6,7-dihydro-4H-thieno[3,2-c]pyridine-3-carboxamide] | 10 to 50 µM
17 | CS(=O)(=O)N1CCCc2c1sc(NC(=O)C1CC1)c2C(=O)NCC1CC1 [Example 6, 2-(Cyclopropanecarbonylamino)-N-(cyclopropylmethyl)-7-methylsulfonyl-5,6-dihydro-4H-thieno[2,3-b]pyridine-3-carboxamide] | 1 to 10 µM
18 | CC(=O)N1CCCc2c1sc(NC(=O)C1CC1)c2C(=O)NCC1CC1 [Example 7, 7-Acetyl-2-(cyclopropanecarbonylamino)-N-(cyclopropylmethyl)-5,6-dihydro-4H-thieno[2,3-b]pyridine-3-carboxamide] | 10 to 50 µM
19 | COCC(=O)N1CCc2sc(NC(=O)C3CC3)c(C(=O)NCC3CC3)c2C1 [Example 8, 2-(Cyclopropanecarbonylamino)-N-(cyclopropylmethyl)-5-(2-methoxyacetyl)-6,7-dihydro-4H-thieno[3,2-c]pyridine-3-carboxamide] | 10 to 50 µM
20 | O=C(NCC1CC1)c1c(NC(=O)C2CC2)sc2c1CN(C(=O)Cc1ccccc1)CC2 [Example 9, 2-(Cyclopropanecarbonylamino)-N-(cyclopropylmethyl)-5-(2-phenylacetyl)-6,7-dihydro-4H-thieno[3,2-c]pyridine-3-carboxamide] | 10 to 50 µM
21 | CC(C)(C)OC(=O)NCCN1CCc2sc(NC(=O)C3CC3)c(C(=O)NCC3CC3)c2C1 [Example 10, Tert-butyl N-[2-[2-(cyclopropanecarbonylamino)-3-(cyclopropylmethylcarbamoyl)-6,7-dihydro-4H-thieno[3,2-c]pyridin-5-yl]ethyl]carbamate] | 10 to 50 µM
22 | O=C(NCC1CC1)c1c(NC(=O)C2CC2)sc2c1CN(CCc1ccccc1)CC2 [Example 11, 2-(Cyclopropanecarbonylamino)-N-(cyclopropylmethyl)-5-(2-phenylethyl)-6,7-dihydro-4H-thieno[3,2-c]pyridine-3-carboxamide] | 10 to 50 µM
23 | COC(=O)CN1CCc2sc(NC(=O)C3CC3)c(C(=O)NCC3CC3)c2C1 [Example 12, Methyl 2-[2-(cyclopropanecarbonylamino)-3-(cyclopropylmethylcarbamoyl)-6,7-dihydro-4H-thieno[3,2-c]pyridin-5-yl]acetate] | 10 to 50 µM
24 | O=C(Nc1sc2c(c1S(=O)(=O)NCC1CC1)CCCC2)C1CC1 [Example 15, N-[3-(Cyclopropylmethylsulfamoyl)-4,5,6,7-tetrahydrobenzothiophen-2-yl]cyclopropanecarboxamide] | < 1 µM
25 | CCCNS(=O)(=O)c1c(NC(=O)C2CC2)sc2c1CCCC2 [Example 16, N-[3-(Propylsulfamoyl)-4,5,6,7-tetrahydrobenzothiophen-2-yl]cyclopropanecarboxamide] | < 1 µM
